# Measured values as given in patent publication US6608086B2, “Dihydropyridines and new uses thereof” (Synaptic Pharmaceutical Corporation, priority 1993, dated 2003).
# Like-named read-outs stand apart in the source and are kept apart here.
# Experiments:
# [1] = target: T1, α1B Human Adrenergic Receptor (Homo sapiens, UniProt P35368); experiment: Radioligand binding, [3H]prazosin, cloned human α1B adrenergic receptor
# T1 construct: The entire coding region of α1B (1563 bp); expressed in transfected cells
# T1 sequence (P35368 1-520): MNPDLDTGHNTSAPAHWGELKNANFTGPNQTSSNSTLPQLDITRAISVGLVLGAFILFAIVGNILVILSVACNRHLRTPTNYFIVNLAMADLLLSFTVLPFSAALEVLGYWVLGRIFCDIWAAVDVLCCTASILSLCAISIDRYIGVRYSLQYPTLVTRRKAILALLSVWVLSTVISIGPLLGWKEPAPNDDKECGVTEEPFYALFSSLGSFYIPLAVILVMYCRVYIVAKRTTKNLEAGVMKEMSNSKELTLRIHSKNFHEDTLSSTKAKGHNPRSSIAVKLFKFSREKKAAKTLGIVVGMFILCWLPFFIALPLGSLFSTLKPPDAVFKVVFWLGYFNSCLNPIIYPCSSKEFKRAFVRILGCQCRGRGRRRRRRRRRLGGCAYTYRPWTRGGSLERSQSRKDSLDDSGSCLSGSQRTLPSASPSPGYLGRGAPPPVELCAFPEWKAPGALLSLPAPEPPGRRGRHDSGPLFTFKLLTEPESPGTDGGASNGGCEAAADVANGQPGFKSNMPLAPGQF
# Procedure, shortened: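 [3H]prazosin (0.5 nM) binding was run for 20 min at 37° C in pH 7.5 Tris/MgCl2/ascorbate buffer on membranes of LM(tk−) cells stably expressing the cloned receptor. Filtration through GF/B ended the reaction; 10 μM phentolamine gave nonspecific binding.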
# [2] = target: T2, α1C Human Adrenergic Receptor (Homo sapiens, UniProt P35348); experiment: Radioligand binding, [3H]prazosin, cloned human α1C adrenergic receptor
# T2 construct: The entire coding region of α1C (1401 bp); expressed in transfected cells
# T2 sequence (P35348 1-466): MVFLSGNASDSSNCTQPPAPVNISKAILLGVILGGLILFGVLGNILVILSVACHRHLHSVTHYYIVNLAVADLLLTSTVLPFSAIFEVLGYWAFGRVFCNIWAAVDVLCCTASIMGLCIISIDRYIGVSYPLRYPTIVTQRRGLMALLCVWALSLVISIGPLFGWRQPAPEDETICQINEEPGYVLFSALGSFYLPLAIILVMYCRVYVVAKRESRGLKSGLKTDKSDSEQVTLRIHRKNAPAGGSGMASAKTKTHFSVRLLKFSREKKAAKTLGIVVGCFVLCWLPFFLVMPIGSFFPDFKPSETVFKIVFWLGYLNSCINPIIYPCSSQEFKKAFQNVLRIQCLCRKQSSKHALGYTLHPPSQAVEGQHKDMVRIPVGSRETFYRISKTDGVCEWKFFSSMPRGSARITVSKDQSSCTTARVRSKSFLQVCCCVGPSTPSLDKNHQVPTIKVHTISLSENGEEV
# Procedure, shortened: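 Stably transfected mouse LM(tk−) fibroblast membranes bearing the cloned human α1C adrenoceptor served as receptor source. Specific binding was taken as the portion of 0.5 nM [3H]prazosin displaceable by 10 μM phentolamine after 20 min at 37° C., pH 7.5, in Mg2+/ascorbate-containing Tris buffer.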
# α2B receptor = target: T3, α2B receptor (Homo sapiens, UniProt P18089); experiment: Competition binding, [3H]rauwolscine, human α2B receptor
# T3 construct: host or cells: LM(tk-) cells, line L-NGC-α2B
# T3 sequence (P18089 1-450): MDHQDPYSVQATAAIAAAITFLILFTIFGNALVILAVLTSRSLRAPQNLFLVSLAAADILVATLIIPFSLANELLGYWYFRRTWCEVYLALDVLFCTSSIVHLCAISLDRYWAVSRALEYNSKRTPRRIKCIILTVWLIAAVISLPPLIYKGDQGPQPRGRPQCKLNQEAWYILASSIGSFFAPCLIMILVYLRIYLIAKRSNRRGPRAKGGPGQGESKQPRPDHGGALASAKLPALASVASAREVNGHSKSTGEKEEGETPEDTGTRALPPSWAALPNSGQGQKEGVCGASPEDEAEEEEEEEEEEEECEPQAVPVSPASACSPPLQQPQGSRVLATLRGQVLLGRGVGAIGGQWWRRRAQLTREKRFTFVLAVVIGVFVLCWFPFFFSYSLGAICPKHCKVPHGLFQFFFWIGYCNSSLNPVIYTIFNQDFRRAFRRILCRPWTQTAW
# Procedure, shortened: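 Filter-bound [3H]rauwolscine (0.5 nM) was measured after equilibrium competition with test antagonists on lysates of LM(tk−) cells stably transfected with each human α2 subtype. Buffer: 25 mM glycylglycine, pH 7.6 at room temperature; 10 μM phentolamine gave nonspecific binding.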
# [3] = cloned human receptor in LM(tk-) cell membranes, SEM and n in lines below
# [4] = [3H]rauwolscine, LM(tk-) cell line L-NGC-α2B, SEM and n in lines below
# [5] = cloned human α1B receptor, LM(tk−) cell membranes
# [6] = cloned human α1C receptor, LM(tk−) cell membranes
# [7] = [3H]rauwolscine, human α2B receptor, LM(tk−) cells
# [8] = PKi alpha-1 1b, cloned human receptor, LM(tk-) cell membranes, mean
# [9] = PKi alpha-1 1c, cloned human receptor, LM(tk-) cell membranes, mean
# [10] = PKi alpha-2 2b, [3H]rauwolscine, human receptor, LM(tk-) cell lysates, mean
molecule,measurement,setting,value
"CCOC(=O)C1(c2ccccc2)CCN(CCCNC(=O)C2=C(COCC(F)(F)F)NC(C)=C(C(N)=O)C2c2ccc([N+](=O)[O-])cc2)CC1 (stereo not drawn) [Example 243, 5-Carboxamido-3-(N-(3-(4-ethoxycarbonyl-4-phenylpiperidin-1yl)propyl))carboxamido-2-((2,2,2-trifluoroethyl)oxy)methyl-1,4dihydro-6-methyl-4-(4-nitro)phenylpyridine]",Ki,"[1]; cloned human α1B receptor, LM(tk-) cell membranes, read-out: PKi alpha-1 1b (converted)",759 nM
same,Ki,"[2]; cloned human α1C receptor, LM(tk-) cell membranes, read-out: PKi alpha-1 1c (converted)",5.75 nM
same,Ki,"α2B receptor; [3H]rauwolscine, human α2B receptor, LM(tk-) cells, read-out: PKi alpha-2 2b (converted)",977 nM
"CC(=O)C1=C(C)NC(COCCN)=C(C(=O)NCCCN2CCC(c3ccccc3)(c3ccccc3)CC2)C1c1ccc(F)cc1 (stereo not drawn) [Example 242, 5-Acetyl-2-((2-aminoethyl)oxy)methyl-4-(4-fluoro)phenyl-1,4-dihydro-6-methyl-3-(N-(3-(4,4-diphenylpiperidin-1-yl)propyl))carboxamidopyridine]",Ki,"[1]; PKi alpha-1 1b, cloned human α1B receptor, LM(tk-) cell membranes",83.2 nM
same,Ki,"[2]; PKi alpha-1 1c, cloned human α1C receptor, LM(tk-) cell membranes",3.98 nM
same,Ki,"α2B receptor; PKi alpha-2 2b, [3H]rauwolscine, human α2B receptor, LM(tk-) cells",933 nM
"CCC1=C(C(=O)NCCCN2CCc3cc(OC)c(OC)cc3C2)C(c2ccc([N+](=O)[O-])cc2)C(C(N)=O)=C(C)N1.Cl.O (stereo not drawn) [Example 76, 5-Carboxamido-2-ethyl-1,4-dihydro-3-(N-(3-(1,2,3,4-tetrahydro-6,7-dimethoxyisoquinolin-2-yl)propyl)) carboxamido-6-methyl-4-(4-nitro)phenylpyridine hydrochloride hydrate]",pKi alpha-1 1b,[1]; [3],5.88
same,pKi alpha-1 1c,[2]; [3],6.63
same,pKi alpha-2 2b,α2B receptor; [4],5.64
"COC(=O)C1=C(C)NC2=C(C(=O)N(CCCN3CCC(c4ccccc4)(c4ccccc4)CC3)C2)C1c1ccc([N+](=O)[O-])cc1.Cl.O (stereo not drawn) [Example 91, 1,4,7,7-Tetrahydro-3-methoxycarbonyl-6-methyl-5-oxo-4-(4-nitrophenyl)-6-(3-(4,4-diphenylpiperidin-1-yl)) propylpyrrolo[3,4-b]pyridine, hydrochloride hydrate]",pKi alpha-1 1b,[1]; [5],6.54
same,pKi alpha-1 1c,[2]; [6],8.04
same,pKi alpha-2 2b,α2B receptor; [7],6.00
"CCC1=C(C(=O)NC)C(c2ccc([N+](=O)[O-])cc2)C(C(=O)NCCCN2CCC(c3ccccc3)(c3ccccc3)CC2)=C(CCCCN)N1 (stereo not drawn) [Example 172, 2-(4-Aminobutyl)-6-ethyl-1,4-dihydro-5-(N-methyl)carboxamido-4-(4-nitrophenyl)-3-{N-[3-(4,4-diphenylpiperidin-1-yl)propyl]}carboxamidopyridine]",Ki,[1]; [8],617 nM
same,Ki,[2]; [9],2.82 nM
same,Ki,α2B receptor; [10],3470 nM
"COC(=O)C1=C(C)NC(c2ccccc2)=C(C(=O)NCCCN2CCC(c3ccccc3)CC2)C1c1ccc([N+](=O)[O-])cc1.Cl (stereo not drawn) [Example 79, 1,4-Dihydro-5-methoxycarbonyl-6-methyl-4-(4-nitro)phenyl-2-phenyl-3-(N-(3-(4-phenylpiperidin-1-yl)propyl)) carboxamidopyridine hydrochloride]",pKi alpha-1 1b,[1]; [3],7.33
same,pKi alpha-1 1c,[2]; [3],7.76
same,pKi alpha-2 2b,α2B receptor; [4],7.28
"COC(=O)C1=C(C)NC(C)=C(C(=O)NCCCN2CCC(c3ccccc3)CC2)C1c1cccc([N+](=O)[O-])c1 (stereo not drawn) [Example 30, 1,4-Dihydro-3-methoxycarbonyl-2,6-dimethyl-4-(3-nitrophenyl)-5-(N-(3-(4-phenylpiperidin-1-yl)propyl)carboxamido)pyridine]",Ki,"[1]; cloned human receptor in LM(tk-) cell membranes, SEM and n in lines below, read-out: pKi alpha-1 1b (converted)",53.7 nM
same,Ki,"[2]; cloned human receptor in LM(tk-) cell membranes, SEM and n in lines below, read-out: pKi alpha-1 1c (converted)",3.02 nM
same,Ki,"α2B receptor; [3H]rauwolscine, LM(tk-) cell line L-NGC-α2B, SEM and n in lines below, read-out: pKi alpha-2 2b (converted)",234 nM
"CCC1=C(C(=O)NCCCCN2CCC(c3ccccc3)CC2)C(c2ccc([N+](=O)[O-])cc2)C(C(N)=O)=C(C)N1.Cl.O (stereo not drawn) [Example 77, 5-Carboxamido-2-ethyl-1,4-dihydro-6-methyl-4-(4-nitro)phenyl-3-(N-(4-(4-phenylpiperidin-1-yl)butyl))carboxamidopyridine hydrochloride hydrate]",pKi alpha-1 1b,[1]; [3],7.16
same,pKi alpha-1 1c,[2]; [3],8.30
same,pKi alpha-2 2b,α2B receptor; [4],7.08
"COC(=O)C1(c2ccccc2)CCN(CCCNC(=O)C2=C(CCCCN)NC(C)=C(C(C)=O)C2c2ccc([N+](=O)[O-])cc2)CC1 (stereo not drawn) [Example 178, 5-Acetyl-2-(4-aminobutyl)-1,4-dihydro-3-{N-[3-(4-methoxycarbonyl-4-phenylpiperidin-1-yl)propyl]}carboxamido-6-methyl-4-(4-nitrophenyl) pyridine]",Ki,"[1]; cloned human receptor, LM(tk-) cell membranes, mean, read-out: PKi alpha-1 1b (converted)",417 nM
same,Ki,"[2]; cloned human receptor, LM(tk-) cell membranes, mean, read-out: PKi alpha-1 1c (converted)",2.57 nM
same,Ki,"α2B receptor; [3H]rauwolscine, human receptor, LM(tk-) cell lysates, mean, read-out: PKi alpha-2 2b (converted)",759 nM
"5-Acetyl-1,4-dihydro-2,6-dimethyl-4-(4-nitrophenyl)-3-[3-(4,4-diphenylpiperidin-1-yl)propoxy]carbonylpyridine hydrochloride hemihydrate [Example 49]",pKi alpha-1 1b,[1]; [3],6.72
same,pKi alpha-1 1c,[2]; [3],8.56
same,pKi alpha-2 2b,α2B receptor,6.42
"CNC(=O)C1=C(C)NC(C)=C(C(=O)NCCCN2CCC(c3ccccc3)(c3ccccc3)CC2)C1c1ccc([N+](=O)[O-])cc1 (racemic) [(±)-119, 1,4-Dihydro-2,6-dimethyl-5-(N-Methyl) carboxamido-4-(4-nitrophenyl)-3-{N-[3-(4,4-diphenylpiperidin-1-yl)propyl]}carboxamidopyridine]",pKi alpha-1 1b,[1]; [5],6.38
same,pKi alpha-1 1c,[2]; [6],8.5
same,pKi alpha-2 2b,α2B receptor,6.04
"CCOC(=O)C1=C(CNCCCN2CCC(c3ccccc3)(c3ccccc3)CC2)NC(C)=C(C(=O)OC)C1c1ccc([N+](=O)[O-])cc1.Cl.O (stereo not drawn) [Example 90, 3-Ethoxycarbonyl-1,4-dihydro-5-methoxycarbonyl-6-methyl-4-(4-nitro)phenyl-2-(N-(3-(4,4,-diphenylpiperidin-1-yl)propyl)amino)methylpyridine, hydrochloride hydrate]",pKi alpha-1 1b,[1]; [5],6.87
same,pKi alpha-1 1c,[2]; [6],7.56
same,pKi alpha-2 2b,α2B receptor; [7],6.04
"CCC1=C(C(=O)NC)C(c2ccc([N+](=O)[O-])cc2)C(C(=O)NCCCN2CCC(c3ccccc3)(c3ccccc3)CC2)=C(CCCCOC)N1 (stereo not drawn) [Example 173, 6-Ethyl-1,4-dihydro-2-(4-methoxybutyl)-5-(N-methyl)carboxamido-4-(4-nitrophenyl)-3-{N-[3-(4,4-diphenylpiperidin-1-yl)propyl]}carboxamidopyridine]",Ki,[1]; [8],427 nM
same,Ki,[2]; [9],3.98 nM
same,Ki,α2B receptor; [10],955 nM
